Test results published in patent US20240226103A1, “SOLID DISPERSION OF A HER2 INHIBITOR” (Boehringer Ingelheim International GmbH, priority 2022, published 2024).
In brackets after ≈: the same amount, converted by molar mass. Where two headings read alike, the source gives them in different places.

Tests used:
Type in all cases: physicochemical
[1] = Equilibrium solubility in aqueous media at different pH and in biorelevant media (UPLC-UV-MS); conditions: for Equilibrium solubility Conc.: 24 h; for solubility thermodynamic at 24 h: thermodynamic from solid, read-out: Equilibrium solubility Conc.
Description: Discard the first ˜3.5 mL then collect 3 aliquots (˜0.5 mL) to be analyzed. • Quantification of the 3 aliquots by UPLC-UV-MS with the appropriate calibration curve.
• Instrument: Waters Acquity H-Class with PDA and QDa detectors • Column: Waters Acquity BEH C18, 1.7 μm, 2.1×50 mm • Flow rate: 0.65 mL/min • UV detection: 254 nm or 410 nm • Column temperature: 40° C.±2° C. • Sample temperature: 23° C.±2° C. • Injection volumes: 0.4 μL (for concentration between 1-500 μg/mL) and 9 μL (for concentration between 0.050-1 μg/mL) • Mobile phase: gradient with solutions A and B prepared as follows
• Ionisation mode: ESI+/ESI− • Source temperature: 600° C. • Capillary voltage: 0.8 kV • Cone voltage: +20V/−20V
Two standard calibration curves (chromatographic UV peak area vs. concentration) are established in DMSO at 254 nm or 410 nm for each solid form and for the solid dispersion, one between 0.025 or 0.050 μg/mL and 1 μg/mL (injection volume=9 μL) and another between 1 μg/mL and 500 μg/mL (injection volume=0.4 μL). The calibration curves are linear in the whole investigated concentration range.

[2] = pH-dependent solubility of compound (1) in aqueous media
Excerpt: Consequently, the in vivo absorption of compound (1) is affected by gastric pH. […] Such a decrease may occur to different extents in different patients due to inter-patient stomach pH variability.

[3] = Organic solubility screening in DCM:methanol solvent blends (visual observation)
Description: Solubility is determined by visual observation.

[4] = Acetate Buffer pH 4, room temperature
[5] = Phosphate Buffer pH 7.4, room temperature

Equilibrium solubility Conc. [1, 4] [µg/mL]	solubility thermodynamic at 24 h ([1]; FaSSIF, 37 °C, pH 6.5, fassif, FaSSIF pH 6.5, 37° C.) [µg/mL]	solubility thermodynamic at 24 h ([1]; FeSSIF, 37 °C, pH 5, fessif, FeSSIF pH 5.0, 37° C.) [µg/mL]	solubility thermodynamic at 24 h ([1]; HCl 0.01N, pH 2, simulated gastric fluid, HCl 0.01N pH 2, room temperature) [µg/mL]	Equilibrium solubility Conc. [1, 5] [µg/mL]	solubility thermodynamic at 24 h ([1]; acetate buffer, pH 5, aqueous buffer, Acetate Buffer pH 5, room temperature) [µg/mL]	solubility thermodynamic at 24 h ([1]; phosphate buffer, pH 6.8, aqueous buffer, Phosphate Buffer pH 6.8, room temperature) [µg/mL]	Equilibrium solubility Conc. ([1]; Acetate Buffer pH 5, room temperature) [µg/mL]	Equilibrium solubility Conc. ([1]; FaSSIF pH 6.5, 37° C.) [µg/mL]	Equilibrium solubility Conc. ([1]; FeSSIF pH 5.0, 37° C.) [µg/mL]	Equilibrium solubility Conc. ([1]; HCl 0.01N pH 2, room temperature) [µg/mL]	Equilibrium solubility Conc. ([1]; Phosphate Buffer pH 6.8, room temperature) [µg/mL]	decrease in solubility between pH 1.2 and pH 6.8 [2]	Solubility ([3]; DCM:methanol 70:30) [wt %]	Solubility ([3]; DCM:methanol 80:20) [wt %]	Solubility ([3]; DCM:methanol 90:10) [wt %]	SMILES
6.6	0.803 (≈ 1.5 µM)	49 (≈ 91.5 µM)	1320 (≈ 2470 µM)	0.056	0.126 (≈ 0.235 µM)	0.025 (≈ 0.0467 µM)										C=CC(=O)NC1CCN(c2ncc3ncnc(Nc4ccc(Oc5ccc6c(c5)ncn6C)c(C)c4)c3n2)CC1 [compound (1) Form III, N-{1-[8-({3-methyl-4-[(1-methyl-1H-1,3-benzodiazol-5-yl)oxy]phenyl}amino)-[1,3]diazino[5,4-d]pyrimidin-2-yl]piperidin-4-yl}prop-2-enamide]
3				0.018			0.075	0.726	44	761	0.027					C=CC(=O)NC1CCN(c2ncc3ncnc(Nc4ccc(Oc5ccc6c(c5)ncn6C)c(C)c4)c3n2)CC1 [compound (1) Form IV, N-{1-[8-({3-methyl-4-[(1-methyl-1H-1,3-benzodiazol-5-yl)oxy]phenyl}amino)-[1,3]diazino[5,4-d]pyrimidin-2-yl]piperidin-4-yl}prop-2-enamide]
												about 10^5 fold	>16.8	>18.7	>17.1	C=CC(=O)NC1CCN(c2ncc3ncnc(Nc4ccc(Oc5ccc6c(c5)ncn6C)c(C)c4)c3n2)CC1 [compound (1), N-{1-[8-({3-methyl-4-[(1-methyl-1H-1,3-benzodiazol-5-yl)oxy]phenyl}amino)-[1,3]diazino[5,4-d]pyrimidin-2-yl]piperidin-4-yl}prop-2-enamide]
